Assay results from patent US12121518B2, “PARP-1 and methods of use thereof” (The Board of Supervisors of Louisiana State University and …, priority 2017, dated 2024).
“Also recorded” adds a separate entry of the source. Like-named read-outs stand apart in the source and are kept apart here.

Tests used:
[1] = system: steroid-resistant leukemia cells; test: Steroid-resistant leukemia cells: cell killing and NOTCH levels; assay type: cell-based; details: 4 nM
CD3+ T cells = test: Proliferation of CD3/CD28-stimulated T cells in the absence of MDSCs; details: 72 h, no MDSCs
ARG-1, iNOS, COX2 = test: Immunoblot of ARG-1, iNOS, COX2 and related factors in bone marrow-derived MDSCs; assay type: cell-based, mouse
Excerpt: (I) Positive control for PARP-1 trapping.
Cell fractionation, protein extraction and immunoblot analysis—Tumor tissues or cells were harvested and homogenized in RIPA lysis buffer (Santa Cruz Biotechnology) containing a cocktail of protease and phosphatase inhibitors on ice. Nuclear fractions were isolated as described (35) and the remaining chromatin pellets were washed then suspended in an isotonic buffer followed by sonication. […] Protein expression signals developed by ECL (Pierce, ThermoFisher Scientific) were determined by a G:Box Gel Image Analysis System (Syngene, Cambridge, UK) equipped with the GeneSys image capture software.

MDSCs and T cells = test: FACS of tumor-infiltrating and spleen immune cells in the MC-38 model; assay type: in vivo, mouse
Excerpt: Tumors from the different experimental groups were either processed to generate single-cell suspensions or fixed with formalin. Single cell suspensions were stained with a combination of antibodies to CD45, CD11b, Gr1, Ly6C, and Ly6G. CD11b^+ cell population was gated from the live CD45^+ population. (A) Representative FACS dot plot of the experimental groups. (B) Absolute numbers and percentages of CD11b^+Gr1^+ cell populations in tumors of the different groups. (C) Absolute numbers and percentages of CD11b^+Ly6C^+ and CD11b^+Ly6G^+ populations in tumors of the different groups. (D) Absolute numbers and percentages of CD45^+CD3^+ and CD3^+CD8^+ cell populations in tumors of the different groups. […] (F) Percentages of CD45^+CD3^+ and CD3^+CD8^+ cell populations in spleens of the different groups. […] T cell proliferation was assessed by FACS. p≤0.05; **, p≤0.01; ***, p≤0.001.
Flow cytometric characterization of tumor infiltrating immune cells using fluorescence-activated cell sorting (FACS) analysis—Following digestion, tumor homogenates were filtered through a […] cell strainer to obtain a single cell suspension. Cell suspensions were then subjected to red blood cell lysis using ACK buffer for 5 minutes before resuspending in complete media. Cells were treated with anti-CD16/CD32 (BD; 2.4G2) for Fc blocking prior to staining with fluorescently-labeled mouse antibodies specific for CD45 (30-F11), CD3e (500A2) (both from eBioscience, San Diego, CA), Ly6C (AL-21), Ly6G (1A8), Gr1 (RB6-8C5), CD11b (M1/70), CD8 (53-6.7), and PD-1 (PA5-J43) (all from BD Biosciences, San Jose, CA). Single cells were gated by first using forward- and side-scatter doublet discrimination. Immune cells were discriminated from this doublet-excluded population using CD45. Myeloid cells were identified using a CD11b^+gate and MDSC subtypes identified by Gr1 selection and then plotted Ly6G/Ly6C. CD3^+ T-cells were gated from CD45^+ cells. CD4^+ and C8^+ T-cells were identified from CD3^+ gate. The detailed gating strategy is described in FIG. 45.

[2] = system: bone marrow-derived MDSCs; details: co-culture without drug
allograft breast cancer = details: 50 mg/kg daily; cited from earlier work
[3] = system: APC^Min-induced tumor burden; test: APC^Min/+ spontaneous intestinal tumorigenesis mouse model; assay type: in vivo; details: APC^Min/+ mice; for intestinal tumor burden: assessed at 16 weeks of age
Excerpt: If chronic inflammation is the sole mechanism by which PARP-1 participates in colon tumorigenesis, then the ability to severely block inflammation upon inhibition of the enzyme, pharmacologically or genetically, should almost entirely alleviate the tumor burden. According to the above data, however, this is not the case. […] In general, APC^Min/+ mice have a rather short lifespan and often die not only as a result of tumor burden but also due to development of severe anemia, substantial cachexia, and/or intestinal intussusceptions. To this end, C57BL/6 PARP-1^+/− and PARP-1^−/− mice were generated in the APC^Min/+ background (FIG. 39). PARP-1 heterozygosity provided remarkable protection against tumor development (FIG. 33A). […] Conversely, PARP-1 knockout promoted an increase in the number of small tumors.
Tumor models, assessment of tumor burden and adoptive transfer—For the azoxymethane/Dextran Sulfate Sodium (AOM/DSS)-induced tumorigenesis model, six to eight weeks old WT, PARP-1^+/− or PARP-1^−/− mice received a single dose (10 mg/kg) of AOM, i.p., followed by 4 cycles of 1.25% DSS provided in drinking water. Each cycle consisted of a week of DSS water separated by 2 weeks of regular water. […] At week 22 after the start of the experimental protocol, mice were sacrificed by CO2 asphyxiation. Colons, spleens, and blood were collected for analysis. Colons were opened longitudinally and washed with PBS to assess the tumor burdens using a dissecting microscope. For the APC^Min-mediated model, APC^Min/+, APC^Min/+PARP-1^+/−, or APC^Min/+PARP-1^−/− male mice were sacrificed at 16 weeks of age. […] Sacrificed mice were processed as described above except that the tumor burden was assessed along the whole intestinal track. Tumors were counted and divided in groups lower than 2 mm, 2-4 mm, and tumors bigger than 4 mm in diameter.
Tissue processing, immunohistochemistry, immunofluorescence and cytokines measurement—Some tissues were fixed in buffered formalin (10%), paraffin-embedded, then sectioned. Serial sections were subjected to H&E staining, immunohistochemistry (IHC) or immunofluorescence, as described (33), with antibodies to PCNA (Novusbio, Littleton, CO), COX-2 (Santa Cruz Biotechnology, Santa Cruz, CA), ICAM-1 (Santa Cruz Biotechnology), CD8 (Santa Cruz Biotechnology), or Gr1 (eBioscience, San Diego, USA) as previously described (34). Some of the sections were subjected to immunofluorescence with antibodies to CD8 or Gr1. Blood, collected by cardiac puncture, was run through a Microtainer Serum Separator tube (BD, Franklin Lake, NJ). The collected sera were immediately stored at −80° C. for future use and analysis. Cytokine levels were assessed for TNF-α (ELM-TNFα-1), IL-6 (ELM-IL-6-1), and MCP-1 (ELM-MCP1) by ELISA (all from RayBiotech, Norcross, GA) according to the manufacturer's instructions and recommendations.

overall CD3+ T cells in spleens (with concomitant decrease in CD8+) (MDSCs and T cells; moderate dose 5 mg/kg): substantial decrease
SMILES: O=C(c1cc(Cc2n[nH]c(=O)c3ccccc23)ccc1F)N1CCN(C(=O)C2CC2)CC1 [olaparib]
sensitivity of the cells to dexamethasone [1]: completely reversed sensitivity of the cells to dexamethasone
proliferation of T cells (CD3+ T cells; high concentration 5 μM): significant effects on T-cell proliferation
proliferation of T cells (CD3+ T cells; low concentration 4 nM): no effect on proliferation of T cells
proliferation of T cells (CD3+ T cells; moderate concentration 0.1 μM): significant effects on T-cell proliferation
increase in ARG-1, iNOS and COX2 during MDSC differentiation (ARG-1, iNOS, COX2; 4 nM, single treatment 24 h after plating): sufficient to prevent the increase in ARG-1, iNOS, and COX2
ARG-1 and iNOS in MDSCs stimulated by co-culture with MC-38 cells (ARG-1, iNOS, COX2; low and high concentrations (4 nM, 1 μM)): inhibitory effects
overall levels of STAT3 (and phosphorylated forms) (ARG-1, iNOS, COX2; low concentration 4 nM): increased the overall levels of STAT3
CD3+ T cells in tumors (mostly CD8+) (MDSCs and T cells; low dose 0.2 mg/kg): increased
percentages and numbers of CD11b+/Gr1+ MDSCs in tumors (MDSCs and T cells; low dose 0.2 mg/kg): did not significantly affect
numbers and percentages of M-MDSCs in tumors (MDSCs and T cells; moderate dose 5 mg/kg): significantly increased
suppressive activity of MDSCs on T-cell proliferation ([2]; 4 nM): significantly reduced
suppressive activity of MDSCs on T-cell proliferation ([2]; high concentration 5 μM): blocked the function of MDSCs completely
suppressive activity of MDSCs on T-cell proliferation ([2]; moderate concentration 0.1 μM): blocked the function of MDSCs completely
effect on anti-PD1 immunotherapy (allograft breast cancer): enhances anti-PD1 immunotherapy
intestinal tumor burden ([3]; 5 mg/kg i.p. twice a week): good protection against the tumor burden; also recorded: good protection against tumor development
intestinal tumor burden ([3]; 5 mg/kg i.p. twice a week, listed as Olaparib): reduces the tumor burden
intestinal tumor burden ([3]; 25 mg/kg i.p. twice a week): no protection against the burden; also recorded: no significant protection
systemic inflammation [3]: effective at blocking systemic inflammation
cachexia (body weight) ([3]; high dose (25 mg/kg)): did not
cachexia (body weight) ([3]; moderate dose (5 mg/kg)): protected against cachexia
